We go through 8 molecules from ChEMBL document CHEMBL1201862, “PubChem BioAssay data set” (2004).

Calls of active or inactive are those of the source. Rule as the data show it, for most assays here: actives have a measured IC50 and inactives only a lower limit. Some results are limits rather than exact numbers.

In assay [1] the target is T1, Alkaline phosphatase, tissue-nonspecific isozyme (Homo sapiens, UniProt P05186).
T1 sequence (P05186 whole entry): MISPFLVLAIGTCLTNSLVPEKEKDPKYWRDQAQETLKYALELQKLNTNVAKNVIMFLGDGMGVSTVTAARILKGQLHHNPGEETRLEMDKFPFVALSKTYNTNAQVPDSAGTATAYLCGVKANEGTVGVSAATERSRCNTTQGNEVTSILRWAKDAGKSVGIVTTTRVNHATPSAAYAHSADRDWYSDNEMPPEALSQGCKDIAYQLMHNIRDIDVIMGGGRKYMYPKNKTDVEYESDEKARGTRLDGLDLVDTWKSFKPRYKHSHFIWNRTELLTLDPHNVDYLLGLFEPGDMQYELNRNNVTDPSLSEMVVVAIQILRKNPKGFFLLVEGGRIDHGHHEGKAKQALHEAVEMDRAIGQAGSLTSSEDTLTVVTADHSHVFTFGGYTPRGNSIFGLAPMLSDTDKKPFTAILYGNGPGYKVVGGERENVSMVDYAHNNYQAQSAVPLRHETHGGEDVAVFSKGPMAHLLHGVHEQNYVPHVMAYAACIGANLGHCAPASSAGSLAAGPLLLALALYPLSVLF
The assay is described as follows: potency against alkaline phosphatase TNAP – biochemical, luminescent, dose response, SAR follow-up (AID 1056).

Assay [2] deals with Alkaline phosphatase, placental type (Homo sapiens, UniProt P05187). The assay is described as follows: human placental alkaline phosphatase inhibition – biochemical, luminescence, confirmation (AID 1512). Format: functional.
Chain of Alkaline phosphatase, placental type (P05187 whole entry): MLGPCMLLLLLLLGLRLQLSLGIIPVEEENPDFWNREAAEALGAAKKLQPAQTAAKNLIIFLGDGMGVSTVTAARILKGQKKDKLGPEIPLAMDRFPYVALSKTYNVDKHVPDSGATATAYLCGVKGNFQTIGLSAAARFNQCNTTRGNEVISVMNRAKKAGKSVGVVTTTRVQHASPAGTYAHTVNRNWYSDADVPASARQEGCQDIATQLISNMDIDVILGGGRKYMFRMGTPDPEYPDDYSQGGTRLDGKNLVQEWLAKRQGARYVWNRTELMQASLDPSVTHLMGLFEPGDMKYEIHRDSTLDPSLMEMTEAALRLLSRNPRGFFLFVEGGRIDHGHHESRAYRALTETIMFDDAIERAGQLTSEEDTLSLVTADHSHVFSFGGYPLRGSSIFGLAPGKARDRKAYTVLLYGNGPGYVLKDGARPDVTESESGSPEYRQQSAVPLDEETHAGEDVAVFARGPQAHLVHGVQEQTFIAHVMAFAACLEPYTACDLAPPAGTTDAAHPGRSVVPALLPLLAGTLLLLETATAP
Assay [3] concerns the target DNA dC->dU-editing enzyme APOBEC-3G (Homo sapiens, UniProt Q9HC16). Format: functional.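 Also: Dose-response counterscreen measuring inhibition of APOBEC3G DNA deaminase activity, run while confirming APOBEC3A inhibitors.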
Assay [4] concerns the target DNA dC->dU-editing enzyme APOBEC-3A (Homo sapiens, UniProt P31941). Description: Dose Response confirmation of small molecule APOBEC3A DNA Deaminase Inhibitors via a fluorescence-based single-stranded DNA deaminase assay. [Related pubchem assays (depositor defined):AID493011, AID493024]. It is filed as functional.
Assay [5] addresses T2, Voltage-gated N-type calcium channel alpha-1B subunit/Amyloid beta A4 precursor protein-binding family A member 1 (Homo sapiens, UniProt Q00975+Q02410). Description: disruptors of Mint-PDZ/N-type channel peptide interaction – biochemical, HTRF, SAR follow-up (AID 2489). It is filed as functional. In general terms: TR-FRET usually uses a lanthanide donor and a delayed reading to cut background.

For assay [6], the target named is T2, Voltage-gated N-type calcium channel alpha-1B subunit/Amyloid beta A4 precursor protein-binding family A member 1. It is filed as protein assay.
For assay [7] the target is unchanged. Format: protein assay. This is another data set of the same source.
The target of assay [8] is Eukaryotic translation initiation factor 4E (Mus musculus, UniProt P63073). Description: blockers of eIF4G binding by eIF4E – biochemical, TR-FRET, dose response (AID 855).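 Also: potency for disrupting eIF4E binding to eIF4GI seen as loss of FRET.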 Format: functional.
In assay [9] the target is Tyrosine-protein phosphatase non-receptor type 12 (Homo sapiens, UniProt Q05209). Description: SAR Selectivity Analysis of small molecule inhibitors of PEST using pCAP in a fluorescence assay. [Related pubchem assays (depositor defined):AID1779, AID1784, AID2135]. Format: functional.
Chain of Tyrosine-protein phosphatase non-receptor type 12 (Q05209 whole entry): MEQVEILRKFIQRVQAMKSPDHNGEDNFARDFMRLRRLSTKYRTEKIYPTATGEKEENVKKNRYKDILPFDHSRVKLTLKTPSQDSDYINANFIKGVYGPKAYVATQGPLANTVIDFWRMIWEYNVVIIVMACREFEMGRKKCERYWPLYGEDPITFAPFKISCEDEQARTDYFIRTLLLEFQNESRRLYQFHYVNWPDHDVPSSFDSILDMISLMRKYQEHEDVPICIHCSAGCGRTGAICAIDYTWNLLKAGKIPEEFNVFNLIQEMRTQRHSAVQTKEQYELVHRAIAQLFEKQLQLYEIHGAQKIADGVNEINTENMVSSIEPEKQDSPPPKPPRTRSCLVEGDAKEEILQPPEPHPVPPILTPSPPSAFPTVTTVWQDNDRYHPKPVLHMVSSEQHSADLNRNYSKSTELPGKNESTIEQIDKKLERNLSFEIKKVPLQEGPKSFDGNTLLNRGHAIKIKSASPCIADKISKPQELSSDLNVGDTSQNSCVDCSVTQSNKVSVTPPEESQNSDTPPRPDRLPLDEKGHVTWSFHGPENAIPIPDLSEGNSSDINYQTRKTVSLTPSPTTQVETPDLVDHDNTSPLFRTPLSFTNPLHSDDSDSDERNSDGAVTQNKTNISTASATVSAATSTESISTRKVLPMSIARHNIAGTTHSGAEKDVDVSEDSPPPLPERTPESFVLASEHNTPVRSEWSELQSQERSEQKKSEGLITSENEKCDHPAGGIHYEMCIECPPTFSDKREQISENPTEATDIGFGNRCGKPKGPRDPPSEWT
Assay [10] has as its target T3, Tyrosine-protein phosphatase non-receptor type 22 (Homo sapiens, UniProt Q9Y2R2).
T3 sequence (Q9Y2R2 whole entry): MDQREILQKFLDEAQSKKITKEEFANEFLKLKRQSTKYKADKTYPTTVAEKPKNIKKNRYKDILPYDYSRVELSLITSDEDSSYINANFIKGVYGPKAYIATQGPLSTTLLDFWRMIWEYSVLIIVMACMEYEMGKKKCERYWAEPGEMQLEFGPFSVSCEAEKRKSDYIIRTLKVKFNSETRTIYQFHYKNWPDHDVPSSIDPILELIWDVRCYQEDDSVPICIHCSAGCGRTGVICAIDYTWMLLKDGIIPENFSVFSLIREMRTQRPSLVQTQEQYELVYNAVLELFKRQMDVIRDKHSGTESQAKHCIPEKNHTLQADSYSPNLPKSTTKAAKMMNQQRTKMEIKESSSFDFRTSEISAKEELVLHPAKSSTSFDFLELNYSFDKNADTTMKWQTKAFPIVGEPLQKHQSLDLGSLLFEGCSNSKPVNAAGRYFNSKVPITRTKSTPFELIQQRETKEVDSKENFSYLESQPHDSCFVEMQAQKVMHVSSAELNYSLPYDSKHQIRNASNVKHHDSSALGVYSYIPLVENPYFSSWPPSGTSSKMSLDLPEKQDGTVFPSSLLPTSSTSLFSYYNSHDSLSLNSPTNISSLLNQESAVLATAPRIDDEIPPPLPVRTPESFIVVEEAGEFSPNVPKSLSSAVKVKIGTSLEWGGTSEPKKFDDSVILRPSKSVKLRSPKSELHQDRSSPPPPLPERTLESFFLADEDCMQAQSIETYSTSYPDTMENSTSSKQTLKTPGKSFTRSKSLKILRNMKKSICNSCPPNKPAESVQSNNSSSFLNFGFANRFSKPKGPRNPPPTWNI
The assay is described as follows: inhibition of lymphoid tyrosine phosphatase LYP – biochemical, pCAP fluorogenic substrate, fluorescence, set 3, SAR follow-up (AID 449727). Format: functional.

For assay [11], the target named is T3, Tyrosine-protein phosphatase non-receptor type 22. Description: SAR LYP1 Fluorescent Assay using OMFP substrate for In Vitro dose response studies - Set 3. [Related pubchem assays (depositor defined):AID1779, AID1784, AID2140, AID2686]. It is filed as functional.
Assay [12] deals with T4, Tyrosine-protein phosphatase non-receptor type 7 (Homo sapiens, UniProt P35236).
T4 sequence (P35236 whole entry): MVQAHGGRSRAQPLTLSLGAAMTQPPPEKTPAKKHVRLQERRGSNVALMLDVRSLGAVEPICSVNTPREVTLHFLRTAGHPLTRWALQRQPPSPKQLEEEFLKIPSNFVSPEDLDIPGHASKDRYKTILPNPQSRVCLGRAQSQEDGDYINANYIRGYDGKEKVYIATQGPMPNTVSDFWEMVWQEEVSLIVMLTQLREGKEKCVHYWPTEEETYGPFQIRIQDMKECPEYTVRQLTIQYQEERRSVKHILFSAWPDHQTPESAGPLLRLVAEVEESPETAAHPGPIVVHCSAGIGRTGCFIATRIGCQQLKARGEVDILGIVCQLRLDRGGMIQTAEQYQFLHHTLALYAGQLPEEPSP
The assay is described as follows: inhibition of hematopoietic tyrosine phosphatase HePTP – biochemical, set 2, SAR follow-up (AID 449736). It is filed as functional.

A further assay addresses T5, Hexokinase HKDC1 (Homo sapiens, UniProt Q2TB90).
T5 sequence (Q2TB90 whole entry): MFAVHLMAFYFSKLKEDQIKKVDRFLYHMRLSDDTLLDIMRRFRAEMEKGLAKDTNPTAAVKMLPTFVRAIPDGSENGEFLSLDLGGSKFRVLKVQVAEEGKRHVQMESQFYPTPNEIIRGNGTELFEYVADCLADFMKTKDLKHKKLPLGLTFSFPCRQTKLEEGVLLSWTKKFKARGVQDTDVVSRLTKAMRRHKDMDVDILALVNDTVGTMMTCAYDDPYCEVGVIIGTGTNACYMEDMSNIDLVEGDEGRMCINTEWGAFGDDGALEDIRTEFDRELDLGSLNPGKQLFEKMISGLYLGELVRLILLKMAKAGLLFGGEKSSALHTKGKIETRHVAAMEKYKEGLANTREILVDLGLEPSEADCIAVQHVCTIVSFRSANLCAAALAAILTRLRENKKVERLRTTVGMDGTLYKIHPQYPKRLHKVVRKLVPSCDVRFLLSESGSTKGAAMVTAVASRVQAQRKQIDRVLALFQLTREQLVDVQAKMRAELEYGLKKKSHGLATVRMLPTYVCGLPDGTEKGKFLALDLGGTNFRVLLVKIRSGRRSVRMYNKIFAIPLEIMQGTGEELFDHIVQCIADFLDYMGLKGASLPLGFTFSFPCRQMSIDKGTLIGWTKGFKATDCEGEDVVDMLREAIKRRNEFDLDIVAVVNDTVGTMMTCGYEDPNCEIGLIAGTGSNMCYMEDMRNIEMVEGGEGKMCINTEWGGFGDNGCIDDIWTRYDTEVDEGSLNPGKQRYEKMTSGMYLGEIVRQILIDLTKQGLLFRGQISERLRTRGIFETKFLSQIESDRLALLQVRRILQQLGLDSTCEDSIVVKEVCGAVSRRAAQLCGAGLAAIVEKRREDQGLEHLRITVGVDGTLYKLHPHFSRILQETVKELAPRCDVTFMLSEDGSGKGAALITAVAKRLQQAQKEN
The assay is described as follows: activation of HKDC1 glucose phosphorylation – biochemical, W721R variant, dose response (AID 504730). Format: functional.

In the next assay the target is Troponin, cardiac muscle (Homo sapiens, UniProt P19429+P45379+P63316). The assay is described as follows: Fluorescence-based biochemical high throughput dose response assay for activators of the calcium sensitivity of cardiac Regulated Thin Filaments (RTF). [Related pubchem assays (depositor defined):AID493008, AID493018, AID504382, AID504383]. It is filed as protein-complex assay.

The target of assay [13] is Glyceraldehyde-3-phosphate dehydrogenase (Homo sapiens, UniProt P04406).

T2 sequence (Q00975 whole entry): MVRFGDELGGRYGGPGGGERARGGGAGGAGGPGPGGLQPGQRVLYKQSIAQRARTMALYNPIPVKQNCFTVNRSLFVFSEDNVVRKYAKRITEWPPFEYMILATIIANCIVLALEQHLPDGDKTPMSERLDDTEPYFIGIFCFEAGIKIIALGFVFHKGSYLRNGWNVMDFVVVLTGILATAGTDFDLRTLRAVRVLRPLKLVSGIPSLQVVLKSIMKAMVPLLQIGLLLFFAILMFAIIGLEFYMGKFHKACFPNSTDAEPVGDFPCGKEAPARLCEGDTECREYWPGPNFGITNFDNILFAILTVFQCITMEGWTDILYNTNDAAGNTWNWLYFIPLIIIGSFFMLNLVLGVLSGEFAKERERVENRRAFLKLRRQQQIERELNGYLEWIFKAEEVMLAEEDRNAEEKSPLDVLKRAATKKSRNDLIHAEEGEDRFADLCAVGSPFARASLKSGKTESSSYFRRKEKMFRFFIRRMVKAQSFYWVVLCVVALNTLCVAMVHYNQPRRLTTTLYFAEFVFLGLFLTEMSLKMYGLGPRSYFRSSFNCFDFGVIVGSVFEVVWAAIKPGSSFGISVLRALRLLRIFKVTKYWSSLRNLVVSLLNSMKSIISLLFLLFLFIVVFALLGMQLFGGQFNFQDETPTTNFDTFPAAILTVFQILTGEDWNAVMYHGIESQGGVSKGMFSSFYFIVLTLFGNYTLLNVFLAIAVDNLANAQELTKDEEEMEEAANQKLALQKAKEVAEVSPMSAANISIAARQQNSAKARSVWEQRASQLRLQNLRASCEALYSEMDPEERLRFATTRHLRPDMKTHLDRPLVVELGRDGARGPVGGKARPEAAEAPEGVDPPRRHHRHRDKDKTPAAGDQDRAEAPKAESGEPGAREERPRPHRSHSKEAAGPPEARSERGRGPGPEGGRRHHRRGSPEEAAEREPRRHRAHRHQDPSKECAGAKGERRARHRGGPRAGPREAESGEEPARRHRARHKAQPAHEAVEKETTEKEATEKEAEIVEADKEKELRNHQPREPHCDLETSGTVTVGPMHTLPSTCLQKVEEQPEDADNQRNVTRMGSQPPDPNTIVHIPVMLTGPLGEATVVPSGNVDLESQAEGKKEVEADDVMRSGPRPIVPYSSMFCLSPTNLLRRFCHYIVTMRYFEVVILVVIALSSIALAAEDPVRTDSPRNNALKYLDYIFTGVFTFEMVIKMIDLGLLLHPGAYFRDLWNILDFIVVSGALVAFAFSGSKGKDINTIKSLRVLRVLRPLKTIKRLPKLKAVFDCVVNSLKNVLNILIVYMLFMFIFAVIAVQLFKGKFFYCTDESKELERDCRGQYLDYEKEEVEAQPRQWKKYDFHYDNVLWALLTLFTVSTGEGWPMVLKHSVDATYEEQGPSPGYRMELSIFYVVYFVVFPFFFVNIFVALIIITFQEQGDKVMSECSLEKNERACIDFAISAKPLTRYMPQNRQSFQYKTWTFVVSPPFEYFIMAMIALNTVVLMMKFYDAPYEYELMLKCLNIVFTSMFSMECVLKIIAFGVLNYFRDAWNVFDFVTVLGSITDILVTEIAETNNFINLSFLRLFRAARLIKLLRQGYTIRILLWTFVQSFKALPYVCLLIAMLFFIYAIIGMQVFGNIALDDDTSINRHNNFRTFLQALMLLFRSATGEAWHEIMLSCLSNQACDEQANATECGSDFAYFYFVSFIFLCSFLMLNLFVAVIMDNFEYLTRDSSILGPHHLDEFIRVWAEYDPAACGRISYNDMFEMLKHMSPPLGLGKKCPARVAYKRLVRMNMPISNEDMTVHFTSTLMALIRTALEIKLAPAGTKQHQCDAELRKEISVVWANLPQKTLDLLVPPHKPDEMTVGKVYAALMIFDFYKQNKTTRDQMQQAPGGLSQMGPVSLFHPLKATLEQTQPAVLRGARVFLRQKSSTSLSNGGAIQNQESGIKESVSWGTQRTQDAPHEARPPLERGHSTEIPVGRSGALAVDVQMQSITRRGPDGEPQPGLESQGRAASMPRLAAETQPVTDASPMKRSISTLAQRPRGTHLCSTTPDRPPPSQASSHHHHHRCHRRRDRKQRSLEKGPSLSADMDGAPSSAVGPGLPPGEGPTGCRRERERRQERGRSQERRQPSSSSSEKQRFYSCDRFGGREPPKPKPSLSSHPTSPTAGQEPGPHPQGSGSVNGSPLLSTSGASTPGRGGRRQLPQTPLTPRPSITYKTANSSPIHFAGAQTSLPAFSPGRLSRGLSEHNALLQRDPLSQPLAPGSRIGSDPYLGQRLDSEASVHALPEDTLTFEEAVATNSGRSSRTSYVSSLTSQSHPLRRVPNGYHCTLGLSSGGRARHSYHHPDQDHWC
T2 sequence (Q02410 whole entry): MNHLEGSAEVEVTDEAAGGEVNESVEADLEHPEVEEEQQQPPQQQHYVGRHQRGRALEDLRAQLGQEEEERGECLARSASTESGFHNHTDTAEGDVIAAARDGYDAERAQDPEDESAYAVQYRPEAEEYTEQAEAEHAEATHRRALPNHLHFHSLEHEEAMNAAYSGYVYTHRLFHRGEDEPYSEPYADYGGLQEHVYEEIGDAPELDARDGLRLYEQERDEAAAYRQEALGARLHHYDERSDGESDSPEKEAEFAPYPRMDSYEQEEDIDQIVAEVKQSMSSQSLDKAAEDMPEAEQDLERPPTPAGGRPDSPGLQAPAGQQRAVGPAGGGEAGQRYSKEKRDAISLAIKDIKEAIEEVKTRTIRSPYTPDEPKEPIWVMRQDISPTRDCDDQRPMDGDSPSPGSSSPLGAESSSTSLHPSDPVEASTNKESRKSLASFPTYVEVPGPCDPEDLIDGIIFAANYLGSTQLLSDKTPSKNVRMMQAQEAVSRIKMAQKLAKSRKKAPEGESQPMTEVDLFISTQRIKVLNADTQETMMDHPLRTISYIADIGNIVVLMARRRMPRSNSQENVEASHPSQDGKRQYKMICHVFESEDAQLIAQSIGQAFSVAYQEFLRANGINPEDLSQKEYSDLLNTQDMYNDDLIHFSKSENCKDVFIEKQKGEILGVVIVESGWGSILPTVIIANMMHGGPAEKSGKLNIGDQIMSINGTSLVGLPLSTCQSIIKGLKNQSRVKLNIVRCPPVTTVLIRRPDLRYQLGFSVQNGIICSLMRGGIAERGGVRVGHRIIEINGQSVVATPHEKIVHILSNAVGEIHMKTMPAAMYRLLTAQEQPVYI
Chain of DNA dC->dU-editing enzyme APOBEC-3G (Q9HC16 whole entry): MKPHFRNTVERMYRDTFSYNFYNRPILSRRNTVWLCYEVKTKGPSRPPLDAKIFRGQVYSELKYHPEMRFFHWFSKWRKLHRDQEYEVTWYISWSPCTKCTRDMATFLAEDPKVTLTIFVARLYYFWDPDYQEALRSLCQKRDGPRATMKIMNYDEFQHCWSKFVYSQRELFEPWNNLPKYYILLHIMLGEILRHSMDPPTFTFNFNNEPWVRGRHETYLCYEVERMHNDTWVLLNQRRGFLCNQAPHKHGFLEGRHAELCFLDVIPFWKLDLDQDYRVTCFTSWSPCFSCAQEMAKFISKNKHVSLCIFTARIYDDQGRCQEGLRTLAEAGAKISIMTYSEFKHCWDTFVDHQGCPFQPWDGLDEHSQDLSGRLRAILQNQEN
Chain of DNA dC->dU-editing enzyme APOBEC-3A (P31941 whole entry): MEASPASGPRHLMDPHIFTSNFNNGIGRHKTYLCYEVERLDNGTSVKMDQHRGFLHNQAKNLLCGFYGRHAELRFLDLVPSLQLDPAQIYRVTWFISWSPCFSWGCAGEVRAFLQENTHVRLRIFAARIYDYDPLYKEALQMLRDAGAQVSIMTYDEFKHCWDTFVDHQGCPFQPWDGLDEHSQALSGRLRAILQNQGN

With `CC(C)(C)C1(C)Oc2cccc(O)c2O1` (stereo not drawn), the IC50 in [1] and in assay [2] was > 100 µM (inactive) throughout.
Take `CSc1ccc(S(=O)(=O)N2CCC(C(=O)NCc3ccccn3)CC2)cc1`: the IC50 in assay [3] was 13.9 µM (active); in assay [4] it was 6.18 µM (active).
As to `CC(=O)NS(=O)(=O)c1ccc(NC(=O)/C=C/c2ccc(C)o2)cc1`, the IC50 was > 56.8 µM (inactive) in assay [5], 6.9 µM (active) in assay [6] and 2.19 µM (active) in assay [7].
Take `CC(C)(C)OC(=O)N1CC(O)CC1C(=O)OCC(=O)c1ccc(-c2ccccc2)cc1` (stereo not drawn): the IC50 in assay [3] is 2.89 µM (active); in assay [4], 1.79 µM (active).
With `COc1ccc(CN2C(=O)/C(=C/c3ccc(-c4ccc(Cl)c(C(=O)O)c4)o3)SC2=S)cc1`, the IC50 in assay [8] is 16.4 µM (active); in [9], 3.13 µM (active); in assay [10], 8.93 µM (active); in assay [11] it was 44.5 µM (active); in assay [12], 0.331 µM (active).
For the molecule `O=C(COC(=O)c1n[nH]c2ccccc12)c1cccc(Br)c1`, the EC50 on Hexokinase HKDC1 was > 80 µM (inactive).
In the case of `O=C1c2ccccc2C(Nc2cccnc2)N1Cc1ccccc1Cl` (stereo not drawn), on Troponin, cardiac muscle, the EC50 is > 71.5 µM (inactive).
Regarding `CN1CCN(C(=O)c2cc(-c3ccc(Cl)cc3Cl)n[nH]2)CC1`, the IC50 in assay [13] is > 100 µM (not active); in assay [2], > 100 µM (inactive).

As a reminder, the IC50 is the point on the concentration scale where inhibition reaches its midpoint. Broadly, the EC50 is the concentration needed to bring the measured effect to its halfway point.
